Experimental data: PubChem BioAssay AID2060896 (Molecular Pharmacology Branch, DTP, NCI, 2025)

Test system: 941728-121-R-J1-PDC complex spheroid viability
Experiment: Anticancer human tumor 941728-121-R-J1-PDC patient-derived lung adenocarcinoma cell line growth inhibition [RAS]
Settings: for IC50: curve of first compound; for viability, T/C: stronger effect = lower value
In short: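 Agents were tested in combination matrices in half-log decrements from a top concentration at or near clinical Cmax (10 microM if undetermined). Targets were multi-cell spheroids of tumour lines plus HUVEC and MSC stromal cells.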

[1] = second compound 0.0316 µM, first compound 0.0316 µM
[2] = second compound 0.0316 µM, first compound 0.1 µM
[3] = second compound 0.0316 µM, first compound 0.316 µM
[4] = second compound 0.0316 µM, first compound 1 µM
[5] = second compound 0.0316 µM, first compound 3.16 µM
[6] = second compound 0.0316 µM, first compound 10 µM
[7] = second compound 0.1 µM, first compound 0.0316 µM
[8] = second compound 0.1 µM, first compound 0.1 µM
[9] = second compound 0.1 µM, first compound 0.316 µM
[10] = second compound 0.1 µM, first compound 1 µM
[11] = second compound 0.1 µM, first compound 3.16 µM
[12] = second compound 0.1 µM, first compound 10 µM
[13] = second compound 0.316 µM, first compound 0.0316 µM
[14] = second compound 0.316 µM, first compound 0.1 µM
[15] = second compound 0.316 µM, first compound 0.316 µM
[16] = second compound 0.316 µM, first compound 1 µM
[17] = second compound 0.316 µM, first compound 3.16 µM
[18] = second compound 0.316 µM, first compound 10 µM
[19] = second compound 1 µM, first compound 0.0316 µM
[20] = second compound 1 µM, first compound 0.1 µM
[21] = second compound 1 µM, first compound 0.316 µM
[22] = second compound 1 µM, first compound 1 µM
[23] = second compound 1 µM, first compound 3.16 µM
[24] = second compound 1 µM, first compound 10 µM
[25] = second compound 3.16 µM, first compound 0.0316 µM
[26] = second compound 3.16 µM, first compound 0.1 µM
[27] = second compound 3.16 µM, first compound 0.316 µM
[28] = second compound 3.16 µM, first compound 1 µM
[29] = second compound 3.16 µM, first compound 3.16 µM
[30] = second compound 3.16 µM, first compound 10 µM
[31] = second compound 10 µM, first compound 0.0316 µM
[32] = second compound 10 µM, first compound 0.1 µM
[33] = second compound 10 µM, first compound 0.316 µM
[34] = second compound 10 µM, first compound 1 µM
[35] = second compound 10 µM, first compound 3.16 µM
[36] = second compound 10 µM, first compound 10 µM
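Further: spheroids exposed to compounds for 7 days before readout.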
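Wherever viability, T/C is given: 100% = DMSO vehicle control viability.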

## CC(=O)OC12COC1CC(O)C1(C)C(=O)C(O)C3=C(C)C(OC(=O)C(O)C(NC(=O)OC(C)(C)C)c4ccccc4)CC(O)(C(OC(=O)c4ccccc4)C21)C3(C)C (stereo unspecified) + C#Cc1c(F)ccc2cc(O)cc(-c3ncc4c(N5CC6CCC(C5)N6)nc(OCC56CCCN5CC(F)C6)nc4c3F)c12
Second compound 0.0316 µM
  IC50: < 31.6 nM
Second compound 0.1 µM
  IC50: < 31.6 nM
Second compound 0.316 µM
  IC50: < 31.6 nM
Second compound 1 µM
  IC50: < 31.6 nM
Second compound 3.16 µM
  IC50: < 31.6 nM
Second compound 10 µM
  IC50: < 31.6 nM
[1]
  viability, T/C: 39.9%
[2]
  viability, T/C: 39.7%
[3]
  viability, T/C: 39.7%
[4]
  viability, T/C: 37.6%
[5]
  viability, T/C: 42.7%
[6]
  viability, T/C: 41.7%
[7]
  viability, T/C: 41.8%
[8]
  viability, T/C: 36.1%
[9]
  viability, T/C: 30.3%
[10]
  viability, T/C: 41.6%
[11]
  viability, T/C: 38.2%
[12]
  viability, T/C: 39.1%
[13]
  viability, T/C: 30.5%
[14]
  viability, T/C: 36.8%
[15]
  viability, T/C: 32.6%
[16]
  viability, T/C: 31.2%
[17]
  viability, T/C: 33.3%
[18]
  viability, T/C: 36.7%
[19]
  viability, T/C: 30.6%
[20]
  viability, T/C: 32.3%
[21]
  viability, T/C: 27.8%
[22]
  viability, T/C: 24.6%
[23]
  viability, T/C: 28.1%
[24]
  viability, T/C: 31%
[25]
  viability, T/C: 22.9%
[26]
  viability, T/C: 26.7%
[27]
  viability, T/C: 23.2%
[28]
  viability, T/C: 21.7%
[29]
  viability, T/C: 22.8%
[30]
  viability, T/C: 25.7%
[31]
  viability, T/C: 16.2%
[32]
  viability, T/C: 14.9%
[33]
  viability, T/C: 14.1%
[34]
  viability, T/C: 14%
[35]
  viability, T/C: 15.3%
[36]
  viability, T/C: 16%

## NC1c2ccccc2OC12CCN(c1cnc3c(N4CCCc5ncccc54)n[nH]c3n1)CC2 (stereo unspecified) + C#Cc1c(F)ccc2cc(O)cc(-c3ncc4c(N5CC6CCC(C5)N6)nc(OCC56CCCN5CC(F)C6)nc4c3F)c12
Second compound 0.0316 µM
  IC50: < 31.6 nM
Second compound 0.1 µM
  IC50: < 31.6 nM
Second compound 0.316 µM
  IC50: < 31.6 nM
Second compound 1 µM
  IC50: < 31.6 nM
Second compound 3.16 µM
  IC50: < 31.6 nM
Second compound 10 µM
  IC50: < 31.6 nM
[1]
  viability, T/C: 37.8%
[2]
  viability, T/C: 34.7%
[3]
  viability, T/C: 30.6%
[4]
  viability, T/C: 35.9%
[5]
  viability, T/C: 35.5%
[6]
  viability, T/C: 43%
[7]
  viability, T/C: 34.8%
[8]
  viability, T/C: 33%
[9]
  viability, T/C: 31.6%
[10]
  viability, T/C: 35.6%
[11]
  viability, T/C: 34.2%
[12]
  viability, T/C: 36.5%
[13]
  viability, T/C: 30.3%
[14]
  viability, T/C: 30.8%
[15]
  viability, T/C: 32.8%
[16]
  viability, T/C: 29.8%
[17]
  viability, T/C: 32%
[18]
  viability, T/C: 37%
[19]
  viability, T/C: 28.5%
[20]
  viability, T/C: 27.6%
[21]
  viability, T/C: 31.4%
[22]
  viability, T/C: 29.4%
[23]
  viability, T/C: 28.8%
[24]
  viability, T/C: 29.7%
[25]
  viability, T/C: 24.1%
[26]
  viability, T/C: 24%
[27]
  viability, T/C: 24.4%
[28]
  viability, T/C: 24.6%
[29]
  viability, T/C: 23.4%
[30]
  viability, T/C: 24.6%
[31]
  viability, T/C: 20.9%
[32]
  viability, T/C: 18.3%
[33]
  viability, T/C: 19.3%
[34]
  viability, T/C: 18.8%
[35]
  viability, T/C: 17.8%
[36]
  viability, T/C: 18.4%

## Nc1ccn(C2OC(CO)C(O)C2(F)F)c(=O)n1 (stereo unspecified) + C#Cc1c(F)ccc2cc(O)cc(-c3ncc4c(N5CC6CCC(C5)N6)nc(OCC56CCCN5CC(F)C6)nc4c3F)c12
Second compound 0.0316 µM
  IC50: 22.3 nM
Second compound 0.1 µM
  IC50: 15.5 nM
Second compound 0.316 µM
  IC50: 5.51 nM
Second compound 1 µM
  IC50: < 3.16 nM
Second compound 3.16 µM
  IC50: < 3.16 nM
Second compound 10 µM
  IC50: < 3.16 nM
Second compound 0.0316 µM, first compound 0.00316 µM
  viability, T/C: 71.5%
Second compound 0.0316 µM, first compound 0.01 µM
  viability, T/C: 54%
[1]
  viability, T/C: 49.6%
[2]
  viability, T/C: 43.4%
[3]
  viability, T/C: 46.3%
[4]
  viability, T/C: 42.6%
Second compound 0.1 µM, first compound 0.00316 µM
  viability, T/C: 72.8%
Second compound 0.1 µM, first compound 0.01 µM
  viability, T/C: 55.1%
[7]
  viability, T/C: 41.7%
[8]
  viability, T/C: 38.3%
[9]
  viability, T/C: 34.5%
[10]
  viability, T/C: 38.2%
Second compound 0.316 µM, first compound 0.00316 µM
  viability, T/C: 51%
Second compound 0.316 µM, first compound 0.01 µM
  viability, T/C: 52.6%
[13]
  viability, T/C: 38.3%
[14]
  viability, T/C: 35.5%
[15]
  viability, T/C: 37.6%
[16]
  viability, T/C: 33.1%
Second compound 1 µM, first compound 0.00316 µM
  viability, T/C: 33.9%
Second compound 1 µM, first compound 0.01 µM
  viability, T/C: 31.9%
[19]
  viability, T/C: 31.6%
[20]
  viability, T/C: 33.2%
[21]
  viability, T/C: 36.8%
[22]
  viability, T/C: 30.3%
Second compound 3.16 µM, first compound 0.00316 µM
  viability, T/C: 30.4%
Second compound 3.16 µM, first compound 0.01 µM
  viability, T/C: 28.7%
[25]
  viability, T/C: 28.5%
[26]
  viability, T/C: 28.3%
[27]
  viability, T/C: 26.1%
[28]
  viability, T/C: 27.7%
Second compound 10 µM, first compound 0.00316 µM
  viability, T/C: 23.6%
Second compound 10 µM, first compound 0.01 µM
  viability, T/C: 21.3%
[31]
  viability, T/C: 20.8%
[32]
  viability, T/C: 18%
[33]
  viability, T/C: 20.2%
[34]
  viability, T/C: 20.1%
